Data taken from paper PMC12040169 (PLOS Biology, 2025).

Assay: in vitro
Settings: human, hela cells, % viability

Cc1cc2ccccc2n1CC(=O)N1CCn2cnnc2C1 [CBK282209]
viability at 28.5 h, 10 µM: 108%

C/C(=C\C(=O)Nc1ccc(O)cc1C(=O)O)c1ccccc1 [CBK265125]
viability at 28.5 h, 10 µM: 115%

COc1ccc(C(NC(=O)C2CCCN(C(=O)NC(=O)c3ccccc3)C2)c2ccccc2C)cn1 (stereo not shown) [CBK075023]
viability at 28.5 h, 10 µM: 90.9%

COc1ccc(-c2nc(CCN)n3ccccc23)cc1 [CBK035583]
viability at 28.5 h, 10 µM: 94.3%

CCCC(=O)c1ccc(S(=O)(=O)N2CCCN(Cc3cc(Br)cs3)CC2)cc1 [CBK062896]
viability at 28.5 h, 10 µM: 91.2%

CNC(=O)c1ccc(CN(Cc2noc(C(C)C)n2)C2CC2)cc1 [CBK304084]
viability at 28.5 h, 10 µM: 83%

CN(C)CC1CCCCN1S(=O)(=O)c1ccc(C(C)(C)C)cc1 (stereo not shown) [CBK051347]
viability at 28.5 h, 10 µM: 108%

OC(CN1CCC(O)(c2ccc(F)cc2)CC1)c1ccc(Cl)cc1 (stereo not shown) [CBK283311]
viability at 28.5 h, 10 µM: 89.6%

OC12CCCON1OC(c1ccccc1)C2 (stereo not shown) [CBK006752]
viability at 28.5 h, 10 µM: 111%

O=c1[nH]c2ccc(NC(=S)NCc3ccccc3)cc2[nH]1 [CBK296099]
viability at 28.5 h, 10 µM: 93.8%

O=C(Nc1nc2ccccc2[nH]1)c1cccc(N2CCCS2(=O)=O)c1 [CBK304584]
viability at 28.5 h, 10 µM: 100%

COc1ccc2nc(NC(=N)NC(=S)Nc3ccc(Cl)cc3)nc(C)c2c1 [CBK266677]
viability at 28.5 h, 10 µM: 88.3%

Sc1nnc(-c2ccncc2)n1CCc1ccccc1 [CBK265819]
viability at 28.5 h, 10 µM: 108%

CC(=O)NCCSc1nc2cc(Cl)c(Cl)cc2nc1N1CCCC1 [CBK103701]
viability at 28.5 h, 10 µM: 96.3%

CS(=O)(=O)c1ccc(-c2ccc(C(=O)N3CCN(Cc4ccc(F)c(F)c4)CC3)nc2)cc1 [CBK160485]
viability at 28.5 h, 10 µM: 87.4%

O=C(Cn1cnnn1)N1CCN(Cc2ccccc2)CC1 [CBK026053]
viability at 28.5 h, 10 µM: 85.5%

O=C(O)C1CCN(C(=O)c2ccc3nsnc3c2)CC1 [CBK057344]
viability at 28.5 h, 10 µM: 99.8%

O=C(Nc1ccccc1C(=O)N1CCN(Cc2ccccc2)CC1)c1ccc(F)cc1 [CBK264948]
viability at 28.5 h, 10 µM: 99.3%

O=C(COc1ccccc1[N+](=O)[O-])Nc1nc2c(s1)CCC2 [CBK296663]
viability at 28.5 h, 10 µM: 85.1%

COc1cccc(Nc2c(C(=O)N3CCCCC3)cnc3nc(C)ccc23)c1 [CBK287817]
viability at 28.5 h, 10 µM: 96%

CN1CC(CO)CCC1Cc1c[nH]c2ccccc12 (stereo not shown) [CBK011468]
viability at 28.5 h, 10 µM: 92.4%

COC(=O)c1ccc(NC(=O)c2oc3ccc(Br)cc3c2C)cc1 [CBK296758]
viability at 28.5 h, 10 µM: 95.7%

CC(NC(=O)c1ccccc1Cn1cncn1)C1CC2CCC1C2 (stereo not shown) [CBK281654]
viability at 28.5 h, 10 µM: 85.8%

Cc1ccc(NC(=O)Cn2cnc3c2c(=O)n(C)c(=O)n3C)nc1 [CBK133463]
viability at 28.5 h, 10 µM: 95.9%

Cc1ccc(-c2csc(NC(=O)CS(=O)(=O)c3ccccc3)n2)cc1 [CBK287707]
viability at 28.5 h, 10 µM: 89.2%

O=C(CCn1c(=O)oc2ccccc21)N1CC=C(c2ccc(F)cc2)CC1 [CBK295602]
viability at 28.5 h, 10 µM: 95.8%

CCCCC(CC)CN1CNC(=S)NC1 (stereo not shown) [CBK265404]
viability at 28.5 h, 10 µM: 105%

O=C(c1ccccc1)n1cc(-c2ccccn2)c(N2CCOCC2)n1 [CBK021010]
viability at 28.5 h, 10 µM: 100%

CCCc1cc(C(=O)N2CCCC(COc3cccc(F)c3)C2)[nH]n1 (stereo not shown) [CBK306776]
viability at 28.5 h, 10 µM: 85.3%

Nc1nonc1-c1nc2ccccc2n1CC(=O)NCc1ccccc1 [CBK264711]
viability at 28.5 h, 10 µM: 92.1%

CC(C)C(=O)N1CCC2(C/C=C/C[C@H]3COCC[C@H]3NC(=O)CNC2=O)CC1 [CBK292157]
viability at 28.5 h, 10 µM: 95.8%

OC(CNc1nccnc1-c1ccco1)COc1ccccc1 (stereo not shown) [CBK036862]
viability at 28.5 h, 10 µM: 96.7%

OCc1ccccc1-c1cc(N2CCN(Cc3cccnc3)CC2)n2nccc2n1 [CBK037105]
viability at 28.5 h, 10 µM: 98.9%

CN1CCc2c(sc3ncn4nc(-c5ccncc5)nc4c23)C1 [CBK288540]
viability at 28.5 h, 10 µM: 96.2%

CCCn1ncc(C(=O)N2CCc3c([nH]c4ccccc34)C2C)c1C (stereo not shown) [CBK281546]
viability at 28.5 h, 10 µM: 98.3%

CC(=O)Nc1ccc(-c2ccc(C(=O)NCc3ccc(OC(F)(F)F)cc3)cn2)cc1 [CBK158830]
viability at 28.5 h, 10 µM: 98.6%

CCCn1c(=O)c(Cc2ccccc2)c(O)c2ccccc21 [CBK291175]
viability at 28.5 h, 10 µM: 89.3%

COC(=O)c1cc(Br)c(NC(=O)c2cccs2)cc1OC [CBK066842]
viability at 28.5 h, 10 µM: 86.6%

O=C1Nc2cc(Cl)ccc2C(=O)N2CC[C@H](NS(=O)(=O)c3cccs3)[C@@H]12 [CBK289341]
viability at 28.5 h, 10 µM: 108%

CCOc1ccc(-c2ccnc(N[C@H]3CC[C@@H](N)CC3)n2)cc1C(=O)O [CBK307104]
viability at 28.5 h, 10 µM: 89.8%

CC(C)(C)c1ccc(-c2cnc3ncccc3c2O)cc1 [CBK089628]
viability at 28.5 h, 10 µM: 84.3%

COc1ccc(C(=O)N[C@@H]2CC[C@@]3(c4ccc(OC)c(OC)c4)CCN(C)[C@H]3C2)c(OC)c1 [CBK074247T]
viability at 28.5 h, 10 µM: 91.7%

CC1CCC(NC(=O)CN2C3CCC2CC(O)(c2ccco2)C3)CC1 (stereo not shown) [CBK284036]
viability at 28.5 h, 10 µM: 91%

O=S1(=O)C=C(SCCN2CCCCC2)c2ccccc21 [CBK265328]
viability at 28.5 h, 10 µM: 92.6%

CC(C)CN1CC(C(=O)NCc2ccccc2-n2ccnc2)CC1=O (stereo not shown) [CBK282189]
viability at 28.5 h, 10 µM: 104%

COc1ccc([C@@]23CCC(NC(=O)Nc4ccccc4OC(F)F)C[C@@H]2N(C)CC3)cc1OC (stereo partly shown) [CBK047547T]
viability at 28.5 h, 10 µM: 97.9%

CC(=O)Nc1cccc(-c2cncc(NCc3ccco3)n2)c1 [CBK065290]
viability at 28.5 h, 10 µM: 100%

CC(C)NC(=O)Cn1c(-c2ccc(F)cc2)cc2cccnc21 [CBK284862]
viability at 28.5 h, 10 µM: 107%

O=S(=O)(Nc1ccc(Cc2ccncc2)cc1)N1CCCC1 [CBK268263]
viability at 28.5 h, 10 µM: 112%

COc1ccc(-c2cc(C(F)(F)F)nc(SCC(=O)Nc3ccc4c(c3)OCO4)n2)cc1OC [CBK266169]
viability at 28.5 h, 10 µM: 101%

COC(=O)c1cccc(Cn2cc(/C=C\[N+](=O)[O-])c3ccccc32)c1 [CBK269020]
viability at 28.5 h, 10 µM: 93.4%

Cc1cc2cc(F)ccc2n1CCCN1CCN(c2ccncc2)CC1 [CBK039119G]
viability at 28.5 h, 10 µM: 116%

O=C(N1CCn2cnnc2C1)C1(c2ccccc2)CCCC1 [CBK283926]
viability at 28.5 h, 10 µM: 90.8%

CC(=O)c1nnn(-c2ccc(Cl)cc2Cl)c1C [CBK085972]
viability at 28.5 h, 10 µM: 86.7%

Cc1cc(NO)nc(-c2ccc(Br)cc2)n1 [CBK261713]
viability at 28.5 h, 10 µM: 97.6%

Fc1ccccc1Oc1nnnn1-c1ccccc1 [CBK002526]
viability at 28.5 h, 10 µM: 98.2%

CC(C)NC(=O)CC[C@@H]1CNC(=O)[C@@H]2C[C@H](NC(=O)c3ccccc3)CN12 [CBK289002]
viability at 28.5 h, 10 µM: 90.9%

Cc1ccc(CN(C)CC(=O)Nc2cc(C(F)(F)F)ccc2Cl)o1 [CBK306085]
viability at 28.5 h, 10 µM: 90.4%

CC(C)CCCC(=O)n1ccn(CCCOc2ccccc2)c1=O [CBK106561]
viability at 28.5 h, 10 µM: 101%

CCC(Oc1ccc(C)cc1)C(=O)Nc1ccccc1C(=O)N1CCOCC1 (stereo not shown) [CBK270132]
viability at 28.5 h, 10 µM: 85.6%

CC(C)(C)C(=O)Nc1ccc(C(=O)Nc2cccc(C(=O)O)c2)cc1 [CBK261329]
viability at 28.5 h, 10 µM: 94.8%

CC(=O)N1CCC2(CCCC[C@H]3CN(C(=O)C(C)C)CC[C@@H]3NC(=O)CNC2=O)CC1 [CBK292121]
viability at 28.5 h, 10 µM: 102%

C=CCNC(=O)N[C@H]1[C@H](O)[C@@H](N2CCN(c3ccccc3OC)CC2)[C@@H]2OC[C@H]1O2 [CBK288818]
viability at 28.5 h, 10 µM: 89.7%

FC(F)(F)c1ccc2c(c1)nc(S)n2C1CC1 [CBK288483]
viability at 28.5 h, 10 µM: 86.2%
